Measured values: US20260183302A1, “PDK1 REGULATORY COMPOUND AND COMPOSITION CONTAINING THE SAME” (PROVIBIO CO., LTD., priority 2024, published 2026)

System: T cells isolated from mouse spleens
Test: T cell proliferation inhibition (CFSE flow cytometry, anti-CD3/anti-CD28 stimulation)
Assay type: cell-based, C57BL/6 mice
Settings: three days
Description: To verify the T cell proliferation inhibitory effect of the compounds according to the present invention, the following experiment was performed based on flow cytometry analysis using carboxyfluorescein diacetate succinimidyl ester (CFSE), a fluorescent dye that binds to intracellular molecules via covalent bonds.
Spleens were extracted from 7-week-old C57BL/6 mice, ground, and then separated into single cells using a strainer (40 μm pore size, SPL). Red blood cells were removed using ACK (Ammonium-Chloride-Potassium) lysis buffer to isolate white blood cells.
Finally, using a MACS Magnetic Stand and LS column, T cells were isolated from the spleen.
The T cells isolated from the spleen were resuspended in 1 mL of free medium (RPMI-1640+200 U/mL penicillin+200 μg/mL streptomycin), and 0.3 μL of CFSE (10 mM) was added. The mixture was incubated at 37° C. for 5 minutes.
Free medium (10 mL) was added to stop the reaction, and the cells were centrifuged to obtain the cell pellet.
RPMI 1640 medium containing 10% FBS, 100 U/mL penicillin, 100 μg/mL streptomycin, and resuspended the cells. The cells were then seeded into a 96-well plate at a density of 2× 10^5 cells per well and activated with CD3 and CD28 antibodies (0.5 μg/mL each) to activate T cells.
The compound diluted in DMSO was added at concentrations of 10 nM, 100 nM, 1 μM, 10 μM, 30 μM, and 50 μM, with three wells per concentration, and cultured at 37° C. and 5% CO2 for three days. The cells were then analyzed using a FACS Canto instrument.
The proliferation inhibition rate (%) was calculated using the following formula: […]

Row | Structure (SMILES) | Proliferation inhibition rate (%) (concentration 1 μM) | Proliferation inhibition rate (%) (concentration 10 μM) | Proliferation inhibition rate (%) (concentration 30 μM) | Proliferation inhibition rate (%) (concentration 50 μM) | Proliferation inhibition rate (%) (concentration 100 nM) | Proliferation inhibition rate (%) (concentration 10 nM) | other results
1 | Nc1ncccc1C(=O)NCCCCCCCCCCCCN1CCC2CCCCC2C1 (centres unmarked) [Compound 16, 2-Amino-N-(12-(octahydroisoquinolin-2 (1H)-yl)dodecyl) nicotinamide] | 100.00% | 100.00% | 100.00% | 100.00% |  |  | 
2 | Nc1ncccc1C(=O)NCCCCCCCCCCCCN1CCc2ccccc2C1 [Compound 17, 2-Amino-N-(12-(3,4-dihydroisoquinolin-2 (1H)-yl)dodecyl) nicotinamide] |  |  |  |  |  |  | Proliferation inhibition rate (%) (concentration 10 nM, listed as PBK-2024-004, 0.01 µM): 0.00%; Proliferation inhibition rate (%) (concentration 100 nM, listed as PBK-2024-004, 0.1 µM): −14.00%; Proliferation inhibition rate (%) (concentration 1 μM, listed as PBK-2024-004, 1 µM): 100.00%; Proliferation inhibition rate (%) (concentration 10 μM, listed as PBK-2024-004, 10 µM): 100.00%
3 | CN(CCCCCCCCCCCCNC(=O)c1cccnc1N)C1CCCCC1 [Compound 34, 2-Amino-N-(12-(cyclohexyl(methyl)amino)dodecyl) nicotinamide] | 100.00% | 100.00% | 100.00% | 100.00% | 100.00% |  | 
4 | CC1CN(CCCCCCCCCCCCNC(=O)c2cccnc2N)C(C)CN1.Cl (centres unmarked) [Compound 36, 2-Amino-N-(12-(2,5-dimethylpiperazin-1-yl)dodecyl) nicotinamide hydrochloride] | 100.00% | 100.00% | 100.00% | 100.00% | 100.00% |  | 
5 | Nc1ncccc1C(=O)NCCCCCCCCCCCCN1CCC(O)CC1 [Compound 48, 2-Amino-N-(12-(4-hydroxypiperidin-1-yl)dodecyl) nicotinamide] | 100.00% | 100.00% | 100.00% | 100.00% | 100.00% |  | 
6 | CN(CCCCCCCCCCCCNC(=O)c1cccnc1N)C(C)(C)C [Compound 53, 2-Amino-N-(12-(tert-butyl(methyl)amino)dodecyl) nicotinamide] | 100.00% | 100.00% | 100.00% | 100.00% | 100.00% |  | 
7 | Nc1ncccc1C(=O)NCCCN1CCOCC1 [Compound 78, 2-amino-N-(3-morpholin-4-yl-propyl) nicotinamide] | −3.73% | 0.68% | 4.51% | 8.76% | −4.19% | −7.14% | 
8 | COC1CCN(CCCCCCCCCCCCNC(=O)c2cccnc2N)CC1 [Compound 94, 2-amino-N-(12-(4-methoxypiperidin-1-yl)dodecyl) nicotinamide] | 100.00% | 100.00% | 100.00% | 100.00% | 100.00% |  | 
9 | Nc1ncccc1C(=O)NCCCCCCCCCCCCN1CCN(C=O)CC1 [Compound 97, 2-amino-N-(12-(4-formylpiperazin-1-yl)dodecyl) nicotinamide] | 100.00% | 100.00% | 100.00% | 100.00% |  |  | 
10 | CC(C)(C)OC(=O)NC1CCN(CCCCCCCCCCCCNC(=O)c2cccnc2N)CC1 [Compound 101, tert-Butyl (1-(12-(2-aminonicotinamido)dodecyl)piperidin-4-yl) carbamate] | 100.00% | 100.00% | 100.00% | 100.00% | 100.00% | −0.15% | 
11 | CC(C)N1CCN(CCCCCCCCCCCCNC(=O)c2cccnc2N)CC1 [Compound 104, 2-Amino-N-(12-(4-isopropylpiperazin-1-yl)dodecyl) nicotinamide] | 100.00% | 100.00% | 100.00% | 100.00% | 100.00% | 100.00% | 
12 | CC(C)(C)OC(=O)N1CCN(CCCCCCCCCCCCNC(=O)c2cccnc2N)CC1 [Compound 111, tert-butyl-4-(12-(2-aminonicotinamido)dodecyl) piperazine-1-carboxylate] | 100.00% | 100.00% | 100.00% | 100.00% | 100.00% | 0.00% | 
13 | COC(=O)C1CCN(CCCCCCCCCCCCNC(=O)c2cccnc2N)C1 (centres unmarked) [Compound 116, Methyl-1-(12-(2-aminonicotinamido)dodecyl)pyrrolidine-3-carboxylate] |  |  |  |  |  |  | inhibition at 0.01 µM (Mus musculus, T-cell, 72 h, concentration 10 nM, read-out: Proliferation inhibition rate (%)): -1.9%; inhibition at 0.1 µM (Mus musculus, T-cell, 72 h, concentration 100 nM, read-out: Proliferation inhibition rate (%)): 26.2%; inhibition at 1 µM (Mus musculus, T-cell, 72 h, concentration 1 μM, read-out: Proliferation inhibition rate (%)): 100%; inhibition at 10 µM (Mus musculus, T-cell, 72 h, concentration 10 μM, read-out: Proliferation inhibition rate (%)): 100%; inhibition at 30 µM (Mus musculus, T-cell, 72 h, concentration 30 μM, read-out: Proliferation inhibition rate (%)): 100%; inhibition at 50 µM (Mus musculus, T-cell, 72 h, concentration 50 μM, read-out: Proliferation inhibition rate (%)): 100%
14 | CC(C)(C)OC(=O)N[C@@H]1CCCN(CCCCCCCCCCCCNC(=O)c2cccnc2N)C1 [Compound 117, tert-butyl-(R)-(1-(12-(2-aminonicotinamido)dodecyl)piperidin-3-yl) carbamate] | 100.00% | 100.00% | 100.00% | 100.00% | 100.00% |  | 
15 | Nc1ncccc1C(=O)NCCCCCCCCCCCCN1CCOC1=O [Compound 127, 2-amino-N-(12-(2-oxooxazolidin-3-yl)dodecyl) nicotinamide] |  | 100.00% | 100.00% | 100.00% |  |  | 
16 | Nc1ncccc1C(=O)NCCCCCCCCCCCCNC1CCOC1 (centres unmarked) [Compound 128, 2-amino-N-(12-((tetrahydrofuran-3-yl)amino)dodecyl) nicotinamide] | 100.00% | 100.00% | 100.00% | 100.00% | 100.00% |  | 
17 | CN1CCN(CCCCCCCCCCCCNC(=O)c2ccccc2C(=O)NC2CCCCC2)CC1 [Compound 191, N1-Cyclohexyl-N2-(12-(4-methylpiperazin-1-yl)dodecyl) phthalamide] | 7.39% | 93.26% | 100.00% | 100.00% | 0.00% | 0.00% | 
18 | CN1CCN(CCCCCCCCCCCCNC(=O)c2ccnc(Cl)c2Cl)CC1 [Compound 198, 2,3-Dichloro-N-(12-(4-methylpiperazin-1-yl)dodecyl) isonicotinamide] | 20.12% | 100.00% | 100.00% | 100.00% | 9.41% | 5.35% | 
